Experimental data reported in the NIST ThermoML archive (doi:10.1021/je900722m).
± gives the expanded uncertainty stated by the source.

Test: xn = mol fraction of the nth substance listed
Details: 101 kPa, Liquid

CC(C)CO [2-methyl-1-propanol] + CCCCO
mass density (303.15 K, x2 = 0.101): 794.896 ± 0.45 kg/m3
viscosity (303.15 K, x2 = 0.101): 3.447 ± 0.057 mPa·s
mass density (303.15 K, x2 = 0.2029): 795.74 ± 0.45 kg/m3
viscosity (303.15 K, x2 = 0.2029): 3.443 ± 0.057 mPa·s
mass density (303.15 K, x2 = 0.3008): 796.558 ± 0.45 kg/m3
viscosity (303.15 K, x2 = 0.3008): 3.389 ± 0.057 mPa·s
mass density (303.15 K, x2 = 0.4): 797.382 ± 0.45 kg/m3
viscosity (303.15 K, x2 = 0.4): 3.313 ± 0.055 mPa·s
mass density (303.15 K, x2 = 0.5): 798.209 ± 0.44 kg/m3
viscosity (303.15 K, x2 = 0.5): 3.237 ± 0.054 mPa·s
mass density (303.15 K, x2 = 0.5999): 799.026 ± 0.44 kg/m3
viscosity (303.15 K, x2 = 0.5999): 3.166 ± 0.053 mPa·s
mass density (303.15 K, x2 = 0.6999): 799.838 ± 0.44 kg/m3
viscosity (303.15 K, x2 = 0.6999): 3.102 ± 0.052 mPa·s
mass density (303.15 K, x2 = 0.7993): 800.635 ± 0.44 kg/m3
viscosity (303.15 K, x2 = 0.7993): 3.04 ± 0.051 mPa·s
mass density (303.15 K, x2 = 0.8995): 801.426 ± 0.44 kg/m3
viscosity (303.15 K, x2 = 0.8995): 2.971 ± 0.05 mPa·s
mass density (308.15 K, x2 = 0.101): 790.969 ± 0.46 kg/m3
viscosity (308.15 K, x2 = 0.101): 2.987 ± 0.05 mPa·s
mass density (308.15 K, x2 = 0.2029): 791.819 ± 0.46 kg/m3
viscosity (308.15 K, x2 = 0.2029): 2.983 ± 0.05 mPa·s
mass density (308.15 K, x2 = 0.3008): 792.643 ± 0.45 kg/m3
viscosity (308.15 K, x2 = 0.3008): 2.939 ± 0.049 mPa·s
mass density (308.15 K, x2 = 0.4): 793.476 ± 0.45 kg/m3
viscosity (308.15 K, x2 = 0.4): 2.871 ± 0.048 mPa·s
mass density (308.15 K, x2 = 0.5): 794.307 ± 0.45 kg/m3
viscosity (308.15 K, x2 = 0.5): 2.804 ± 0.047 mPa·s
mass density (308.15 K, x2 = 0.5999): 795.132 ± 0.45 kg/m3
viscosity (308.15 K, x2 = 0.5999): 2.752 ± 0.046 mPa·s
mass density (308.15 K, x2 = 0.6999): 795.953 ± 0.45 kg/m3
viscosity (308.15 K, x2 = 0.6999): 2.708 ± 0.046 mPa·s
mass density (308.15 K, x2 = 0.7993): 796.757 ± 0.45 kg/m3
viscosity (308.15 K, x2 = 0.7993): 2.669 ± 0.045 mPa·s
mass density (308.15 K, x2 = 0.8995): 797.554 ± 0.44 kg/m3
viscosity (308.15 K, x2 = 0.8995): 2.62 ± 0.044 mPa·s
mass density (313.15 K, x2 = 0.101): 786.977 ± 0.46 kg/m3
viscosity (313.15 K, x2 = 0.101): 2.591 ± 0.044 mPa·s
mass density (313.15 K, x2 = 0.2029): 787.84 ± 0.46 kg/m3
viscosity (313.15 K, x2 = 0.2029): 2.587 ± 0.044 mPa·s
mass density (313.15 K, x2 = 0.3008): 788.67 ± 0.46 kg/m3
viscosity (313.15 K, x2 = 0.3008): 2.562 ± 0.043 mPa·s
mass density (313.15 K, x2 = 0.4): 789.511 ± 0.46 kg/m3
viscosity (313.15 K, x2 = 0.4): 2.511 ± 0.043 mPa·s
mass density (313.15 K, x2 = 0.5): 790.349 ± 0.46 kg/m3
viscosity (313.15 K, x2 = 0.5): 2.462 ± 0.042 mPa·s
mass density (313.15 K, x2 = 0.5999): 791.184 ± 0.46 kg/m3
viscosity (313.15 K, x2 = 0.5999): 2.424 ± 0.041 mPa·s
mass density (313.15 K, x2 = 0.6999): 792.012 ± 0.45 kg/m3
viscosity (313.15 K, x2 = 0.6999): 2.391 ± 0.041 mPa·s
mass density (313.15 K, x2 = 0.7993): 792.829 ± 0.45 kg/m3
viscosity (313.15 K, x2 = 0.7993): 2.363 ± 0.04 mPa·s
mass density (313.15 K, x2 = 0.8995): 793.633 ± 0.45 kg/m3
viscosity (313.15 K, x2 = 0.8995): 2.327 ± 0.04 mPa·s
mass density (318.15 K, x2 = 0.101): 782.93 ± 0.47 kg/m3
viscosity (318.15 K, x2 = 0.101): 2.236 ± 0.038 mPa·s
mass density (318.15 K, x2 = 0.2029): 783.806 ± 0.47 kg/m3
viscosity (318.15 K, x2 = 0.2029): 2.234 ± 0.038 mPa·s
mass density (318.15 K, x2 = 0.3008): 784.646 ± 0.47 kg/m3
viscosity (318.15 K, x2 = 0.3008): 2.219 ± 0.038 mPa·s
mass density (318.15 K, x2 = 0.4): 785.496 ± 0.46 kg/m3
viscosity (318.15 K, x2 = 0.4): 2.191 ± 0.038 mPa·s
mass density (318.15 K, x2 = 0.5): 786.344 ± 0.46 kg/m3
viscosity (318.15 K, x2 = 0.5): 2.158 ± 0.037 mPa·s
mass density (318.15 K, x2 = 0.5999): 787.188 ± 0.46 kg/m3
viscosity (318.15 K, x2 = 0.5999): 2.129 ± 0.037 mPa·s
mass density (318.15 K, x2 = 0.6999): 788.027 ± 0.46 kg/m3
viscosity (318.15 K, x2 = 0.6999): 2.111 ± 0.036 mPa·s
mass density (318.15 K, x2 = 0.7993): 788.855 ± 0.46 kg/m3
viscosity (318.15 K, x2 = 0.7993): 2.094 ± 0.036 mPa·s
mass density (318.15 K, x2 = 0.8995): 789.67 ± 0.46 kg/m3
viscosity (318.15 K, x2 = 0.8995): 2.068 ± 0.036 mPa·s
mass density (323.15 K, x2 = 0.101): 778.816 ± 0.48 kg/m3
viscosity (323.15 K, x2 = 0.101): 1.964 ± 0.034 mPa·s
mass density (323.15 K, x2 = 0.2029): 779.704 ± 0.47 kg/m3
viscosity (323.15 K, x2 = 0.2029): 1.958 ± 0.034 mPa·s
mass density (323.15 K, x2 = 0.3008): 780.558 ± 0.47 kg/m3
viscosity (323.15 K, x2 = 0.3008): 1.951 ± 0.034 mPa·s
mass density (323.15 K, x2 = 0.4): 781.419 ± 0.47 kg/m3
viscosity (323.15 K, x2 = 0.4): 1.931 ± 0.033 mPa·s
mass density (323.15 K, x2 = 0.5): 782.279 ± 0.47 kg/m3
